Source: ChEMBL document CHEMBL1201862, “PubChem BioAssay data set” (2004)
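Results reflect a 48-hour exposure of cells in 96-well plates to compound at five concentrations. Here, GI50 denotes the concentration required for 50% inhibition of growth.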 The source made the active and inactive calls. No stated cut-off is given here; in the data, active = GI50 up to about 1.1 µM and inactive = higher.

What was measured:
Test in all cases: growth of human tumour cells (NCI), 48 h
LOX IMVI = system: LOX IMVI
OVCAR-3 = system: OVCAR-3
HCC 2998 = system: HCC 2998
UO-31 = system: UO-31
SF-295 = system: SF-295
A549 = system: A549
HT-29 = system: HT-29
KM12 = system: KM12
U-251 = system: U-251
A498 = system: A498
SK-OV-3 = system: SK-OV-3
NCI-H460 = system: NCI-H460
COLO 205 = system: COLO 205
IGROV-1 = system: IGROV-1

Measured: GI50

O=C1C=C(Nc2ccc(S(=O)(=O)Nc3ncccn3)cc2)c2ccccc2C1=O
inactive: LOX IMVI 15.8 µM | OVCAR-3 14.6 µM | HCC 2998 18 µM | UO-31 24 µM | SF-295 20.6 µM | A549 25.3 µM | HT-29 22.6 µM | KM12 18.4 µM | U-251 17.6 µM | A498 30.3 µM | SK-OV-3 26.7 µM | NCI-H460 20.7 µM | COLO 205 22.5 µM | IGROV-1 26.5 µM

O=C1/C(=C/c2cccc([N+](=O)[O-])c2)COc2ccc(Br)cc21
inactive: LOX IMVI 37.2 µM | OVCAR-3 > 100 µM | HCC 2998 > 100 µM | UO-31 95.5 µM | SF-295 > 100 µM | A549 > 100 µM | HT-29 58.6 µM | KM12 > 100 µM | U-251 > 100 µM | A498 > 100 µM | SK-OV-3 > 100 µM | NCI-H460 > 100 µM | COLO 205 > 100 µM | IGROV-1 > 100 µM

O=C1NC(=S)NC(=O)C1=CC1CC1
inactive: LOX IMVI > 100 µM | HCC 2998 > 100 µM | UO-31 > 100 µM | SF-295 > 100 µM | A549 > 100 µM | HT-29 > 100 µM | KM12 > 100 µM | U-251 > 100 µM | A498 > 100 µM | SK-OV-3 > 100 µM | NCI-H460 > 100 µM | COLO 205 > 100 µM | IGROV-1 > 100 µM

Cc1ccccc1/N=N/C(C(=O)c1ccccc1)C(=O)c1ccccc1
inactive: OVCAR-3 24.9 µM | HCC 2998 40.8 µM | UO-31 17.2 µM | SF-295 23.8 µM | A549 24.9 µM | HT-29 28 µM | KM12 29.7 µM | U-251 16 µM | A498 39 µM | SK-OV-3 41.6 µM | COLO 205 33.7 µM | IGROV-1 44.2 µM

CCCN(CCCC(NC(C)=O)C(=O)NCc1ccccc1)C(=O)NCCCl (centres undefined)
inactive: OVCAR-3 > 100 µM | HCC 2998 > 100 µM | UO-31 > 100 µM | SF-295 > 100 µM | A549 > 100 µM | HT-29 > 100 µM | KM12 > 100 µM | U-251 > 100 µM | NCI-H460 > 100 µM | COLO 205 > 100 µM | IGROV-1 > 100 µM

CCOc1ccc(/N=N/c2ccc3oc(=O)c(/C(C)=N\NC(=O)CC(=O)Nc4ccc(Cl)cc4)cc3c2)cc1
inactive: LOX IMVI 13.2 µM | OVCAR-3 15.5 µM | HCC 2998 16.3 µM | UO-31 12.2 µM | SF-295 16.5 µM | A549 20.7 µM | KM12 19.2 µM | U-251 16.4 µM | SK-OV-3 19.9 µM | COLO 205 30.5 µM | IGROV-1 22 µM

O=C(C(O)c1cn(Cc2ccccc2)c2ccccc12)N1CCCCC1 (centres undefined)
inactive: LOX IMVI > 100 µM | OVCAR-3 50 µM | HCC 2998 > 100 µM | UO-31 > 100 µM | SF-295 76 µM | A549 45 µM | HT-29 > 100 µM | KM12 > 100 µM | U-251 > 10 µM | A498 > 100 µM | SK-OV-3 72.8 µM | COLO 205 > 100 µM | IGROV-1 30.4 µM

CCOC(=O)c1ccn2c(c1)c(C#N)c1nc3ccccc3nc12
inactive: LOX IMVI 29.2 µM | OVCAR-3 > 100 µM | HCC 2998 53.1 µM | UO-31 42.4 µM | A549 50.1 µM | KM12 51.6 µM | U-251 76.7 µM | A498 85.5 µM | SK-OV-3 55.1 µM | NCI-H460 28.6 µM | COLO 205 48.2 µM | IGROV-1 5.4 µM

COCC1N=C(c2cc(OC)c(OC)c(OC)c2-c2cc3c(cc2[C@H](C)O)OCO3)O[C@H]1c1ccccc1 (some centres undefined)
inactive: LOX IMVI 63.2 µM | OVCAR-3 47.4 µM | HCC 2998 > 100 µM | UO-31 58.6 µM | SF-295 48.2 µM | A549 56.8 µM | HT-29 76.2 µM | KM12 52.6 µM | U-251 65.2 µM | SK-OV-3 > 100 µM | COLO 205 30.1 µM | IGROV-1 > 100 µM

O=C(Cc1cc[n+]([O-])cc1)C(=O)Nc1cc(Cl)c(Cl)cc1Cl
inactive: OVCAR-3 > 100 µM | HCC 2998 > 100 µM | UO-31 > 100 µM | SF-295 > 100 µM | A549 > 100 µM | KM12 > 100 µM | U-251 > 100 µM | A498 > 100 µM | SK-OV-3 > 100 µM | NCI-H460 > 100 µM | COLO 205 > 100 µM | IGROV-1 > 100 µM

NC(=O)N/N=C/C(/C=N/NC(N)=O)[N+](=O)[O-]
inactive: LOX IMVI > 100 µM | OVCAR-3 > 100 µM | SF-295 > 100 µM | A549 > 100 µM | HT-29 > 100 µM | KM12 > 100 µM | A498 > 100 µM | SK-OV-3 > 100 µM | COLO 205 > 100 µM | IGROV-1 > 100 µM

CC(=O)OC1COC(N2C(=O)/C(=N\NC(N)=S)c3cc(Br)ccc32)C(OC(C)=O)C1OC(C)=O (centres undefined)
inactive: LOX IMVI 38.9 µM | OVCAR-3 51.5 µM | HCC 2998 > 100 µM | SF-295 45.3 µM | A549 43.3 µM | HT-29 > 100 µM | KM12 39.4 µM | U-251 53.5 µM | SK-OV-3 > 100 µM | NCI-H460 23.8 µM | COLO 205 38.1 µM | IGROV-1 > 100 µM

CCOC(=O)Oc1ccc2[nH]c3c(C)cc(N)c(C)c3c2c1
inactive: LOX IMVI > 100 µM | OVCAR-3 > 100 µM | HCC 2998 > 100 µM | UO-31 > 100 µM | SF-295 > 100 µM | A549 > 100 µM | HT-29 > 100 µM | KM12 68.4 µM | NCI-H460 > 100 µM | COLO 205 > 100 µM

O=C(Nc1cccs1)c1c(O)[nH]c(=S)[nH]c1=O
inactive: LOX IMVI > 100 µM | OVCAR-3 > 100 µM | UO-31 > 100 µM | SF-295 > 100 µM | A549 > 100 µM | KM12 > 100 µM | U-251 > 100 µM | A498 > 100 µM | SK-OV-3 > 100 µM | NCI-H460 > 100 µM | COLO 205 > 100 µM | IGROV-1 > 100 µM

COC(=O)C1=CO[C@@H](OC2CC(CO)C(O)C(O)C2O)[C@@H]2[C@@H](C)[C@@H](OC(=O)/C=C/c3ccccc3)[C@@H](O)[C@H]12.COC(=O)C1=CO[C@@H](OC2CC(CO)C(O)C(O)C2O)[C@@H]2[C@@H](C)[C@@H](OC(=O)c3ccccc3)[C@@H](O)[C@H]12 (some centres undefined)
inactive: LOX IMVI > 100 µM | OVCAR-3 > 100 µM | HCC 2998 > 100 µM | UO-31 > 100 µM | SF-295 > 100 µM | A549 > 100 µM | HT-29 > 100 µM | KM12 > 100 µM | U-251 > 100 µM | A498 > 100 µM | SK-OV-3 > 100 µM | COLO 205 > 100 µM | IGROV-1 > 100 µM

CC(=O)OC1CC2C(C)(C)C(=O)C=C[C@]2(C)C2CCC3(C)C(=CC(=O)C3c3ccoc3)[C@]12C (some centres undefined)
inactive: LOX IMVI 14.8 µM | OVCAR-3 11.5 µM | HCC 2998 12.3 µM | UO-31 18.9 µM | SF-295 15.2 µM | A549 15.1 µM | HT-29 13.5 µM | KM12 11.9 µM | A498 16.9 µM | SK-OV-3 20.7 µM | NCI-H460 11.4 µM | COLO 205 16.9 µM | IGROV-1 16.6 µM
